Experimental data published in PubChem BioAssay (NCI).
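Briefly, cells in 96-well plates were exposed to five compound concentrations for 48 h, and endpoints were estimated by linear interpolation. TGI denotes the concentration required for complete inhibition of growth.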

Experiments:
Experiment in all cases: growth of human tumour cells (NCI), 48 h
SK-MEL-28 melanoma = system: SK-MEL-28 melanoma
HCC-2998 colon = system: HCC-2998 colon
OVCAR-5 ovarian = system: OVCAR-5 ovarian
NCI-H460 lung = system: NCI-H460 lung
RXF 393 renal = system: RXF 393 renal
ACHN renal = system: ACHN renal
MOLT-4 leukemia = system: MOLT-4 leukemia
SNB-19 CNS = system: SNB-19 CNS
SNB-75 CNS = system: SNB-75 CNS
OVCAR-4 ovarian = system: OVCAR-4 ovarian
A498 renal = system: A498 renal
HL-60(TB) leukemia = system: HL-60(TB) leukemia
SF-539 CNS = system: SF-539 CNS
SF-295 CNS = system: SF-295 CNS
SF-268 CNS = system: SF-268 CNS
EKVX NSCLC = system: EKVX NSCLC
MDA-MB-435 = system: MDA-MB-435
CCRF-CEM leukemia = system: CCRF-CEM leukemia
U251 CNS = system: U251 CNS
A549 NSCLC = system: A549 NSCLC
KM12 colon = system: KM12 colon
M14 melanoma = system: M14 melanoma
SR leukemia = system: SR leukemia
HS 578T breast = system: HS 578T breast
UO-31 renal = system: UO-31 renal
IGROV1 ovarian = system: IGROV1 ovarian
SK-MEL-2 melanoma = system: SK-MEL-2 melanoma
BT-549 breast = system: BT-549 breast
NCI-H23 lung = system: NCI-H23 lung
MCF7 breast = system: MCF7 breast
HCT-15 colon = system: HCT-15 colon
T-47D breast = system: T-47D breast
MDA-MB-231 breast = system: MDA-MB-231 breast
OVCAR-8 ovarian = system: OVCAR-8 ovarian
HT29 colon = system: HT29 colon
SW-620 colon = system: SW-620 colon
MALME-3M melanoma = system: MALME-3M melanoma
NCI-H522 lung = system: NCI-H522 lung
MDA-N = system: MDA-N
HCT-116 colon = system: HCT-116 colon
DU-145 prostate = system: DU-145 prostate
HOP-92 NSCLC = system: HOP-92 NSCLC
786-0 renal = system: 786-0 renal
CAKI-1 renal = system: CAKI-1 renal
NCI/ADR-RES ovarian = system: NCI/ADR-RES ovarian
COLO 205 colon = system: COLO 205 colon
SK-MEL-5 melanoma = system: SK-MEL-5 melanoma
PC-3 prostate = system: PC-3 prostate
LOX IMVI melanoma = system: LOX IMVI melanoma
UACC-257 melanoma = system: UACC-257 melanoma
HOP-62 NSCLC = system: HOP-62 NSCLC
SN12C renal = system: SN12C renal
TK-10 renal = system: TK-10 renal
NCI-H226 lung = system: NCI-H226 lung
SK-OV-3 ovarian = system: SK-OV-3 ovarian
K-562 leukemia = system: K-562 leukemia
UACC-62 melanoma = system: UACC-62 melanoma
OVCAR-3 ovarian = system: OVCAR-3 ovarian
RPMI-8226 leukemia = system: RPMI-8226 leukemia

SMILES: COc1ccc(-c2nnc3n(Cc4ccccc4)c4ccccc4n3c2=O)cc1
- TGI (SK-MEL-28 melanoma): > 100 µM
- TGI (HCC-2998 colon): > 100 µM
- TGI (OVCAR-5 ovarian): > 100 µM
- TGI (NCI-H460 lung): > 100 µM
- TGI (RXF 393 renal): 61.8 µM
- TGI (ACHN renal): 99.5 µM
- TGI (MOLT-4 leukemia): > 100 µM
- TGI (SNB-19 CNS): 80 µM
- TGI (SNB-75 CNS): 41.8 µM
- TGI (OVCAR-4 ovarian): 43.6 µM
- TGI (A498 renal): 99.6 µM
- TGI (HL-60(TB) leukemia): > 100 µM
- TGI (SF-539 CNS): 34.3 µM
- TGI (SF-295 CNS): 41.8 µM
- TGI (SF-268 CNS): > 100 µM
- TGI (EKVX NSCLC): > 100 µM
- TGI (MDA-MB-435): > 100 µM
- TGI (CCRF-CEM leukemia): > 100 µM
- TGI (U251 CNS): 55 µM
- TGI (A549 NSCLC): > 100 µM
- TGI (KM12 colon): > 100 µM
- TGI (M14 melanoma): > 100 µM
- TGI (SR leukemia): > 100 µM
- TGI (HS 578T breast): > 100 µM
- TGI (UO-31 renal): > 100 µM
- TGI (IGROV1 ovarian): 63.7 µM
- TGI (SK-MEL-2 melanoma): > 100 µM
- TGI (BT-549 breast): > 100 µM
- TGI (NCI-H23 lung): > 100 µM
- TGI (MCF7 breast): > 100 µM
- TGI (HCT-15 colon): > 100 µM
- TGI (T-47D breast): > 100 µM
- TGI (MDA-MB-231 breast): > 100 µM
- TGI (OVCAR-8 ovarian): > 100 µM
- TGI (HT29 colon): > 100 µM
- TGI (SW-620 colon): > 100 µM
- TGI (MALME-3M melanoma): > 100 µM
- TGI (NCI-H522 lung): 80.7 µM
- TGI (MDA-N): > 100 µM
- TGI (HCT-116 colon): > 100 µM
- TGI (DU-145 prostate): > 100 µM
- TGI (HOP-92 NSCLC): 95 µM
- TGI (786-0 renal): 25.1 µM
- TGI (CAKI-1 renal): 45 µM
- TGI (NCI/ADR-RES ovarian): > 100 µM
- TGI (COLO 205 colon): > 100 µM
- TGI (SK-MEL-5 melanoma): > 100 µM
- TGI (PC-3 prostate): 32.4 µM
- TGI (LOX IMVI melanoma): > 100 µM
- TGI (UACC-257 melanoma): > 100 µM
- TGI (HOP-62 NSCLC): 12.2 µM
- TGI (SN12C renal): > 100 µM
- TGI (TK-10 renal): 58.1 µM
- TGI (NCI-H226 lung): 97.4 µM

SMILES: O=S1(=O)NC2CCC3NS(=O)(=O)NC4CCC(N1)N4S(=O)(=O)N23 (stereo unspecified)
- TGI (SK-MEL-28 melanoma): > 100 µM
- TGI (HCC-2998 colon): > 100 µM
- TGI (OVCAR-5 ovarian): > 100 µM
- TGI (NCI-H460 lung): > 100 µM
- TGI (RXF 393 renal): > 100 µM
- TGI (ACHN renal): > 100 µM
- TGI (SNB-19 CNS): > 100 µM
- TGI (SNB-75 CNS): > 100 µM
- TGI (OVCAR-4 ovarian): > 100 µM
- TGI (A498 renal): > 100 µM
- TGI (HL-60(TB) leukemia): > 100 µM
- TGI (SF-539 CNS): > 100 µM
- TGI (SF-295 CNS): > 100 µM
- TGI (SF-268 CNS): > 100 µM
- TGI (EKVX NSCLC): > 100 µM
- TGI (MDA-MB-435): > 100 µM
- TGI (U251 CNS): > 100 µM
- TGI (A549 NSCLC): > 100 µM
- TGI (KM12 colon): > 100 µM
- TGI (SK-OV-3 ovarian): > 100 µM
- TGI (M14 melanoma): > 100 µM
- TGI (SR leukemia): > 100 µM
- TGI (HS 578T breast): > 100 µM
- TGI (UO-31 renal): > 100 µM
- TGI (IGROV1 ovarian): > 100 µM
- TGI (SK-MEL-2 melanoma): > 100 µM
- TGI (BT-549 breast): > 100 µM
- TGI (K-562 leukemia): > 100 µM
- TGI (NCI-H23 lung): > 100 µM
- TGI (MCF7 breast): > 100 µM
- TGI (HCT-15 colon): > 100 µM
- TGI (T-47D breast): > 100 µM
- TGI (UACC-62 melanoma): > 100 µM
- TGI (MDA-MB-231 breast): > 100 µM
- TGI (OVCAR-8 ovarian): > 100 µM
- TGI (HT29 colon): > 100 µM
- TGI (SW-620 colon): > 100 µM
- TGI (MALME-3M melanoma): > 100 µM
- TGI (NCI-H522 lung): > 100 µM
- TGI (MDA-N): > 100 µM
- TGI (HCT-116 colon): > 100 µM
- TGI (DU-145 prostate): > 100 µM
- TGI (OVCAR-3 ovarian): > 100 µM
- TGI (HOP-92 NSCLC): > 100 µM
- TGI (786-0 renal): > 100 µM
- TGI (RPMI-8226 leukemia): > 100 µM
- TGI (CAKI-1 renal): > 100 µM
- TGI (NCI/ADR-RES ovarian): > 100 µM
- TGI (COLO 205 colon): > 100 µM
- TGI (SK-MEL-5 melanoma): > 100 µM
- TGI (PC-3 prostate): > 100 µM
- TGI (LOX IMVI melanoma): > 100 µM
- TGI (UACC-257 melanoma): > 100 µM
- TGI (HOP-62 NSCLC): > 100 µM
- TGI (SN12C renal): > 100 µM
- TGI (TK-10 renal): > 100 µM
- TGI (NCI-H226 lung): > 100 µM
